Publication PMC12715984, “Co‐cultivation and Medium Optimization: A Strategy for Discovering Fungal‐derived Protease Inhibitors” (Chemistry & Biodiversity, 2025)
≈ marks a conversion by molar mass, not a printed value. Read-outs that look alike come from different tables or passages of the source. One block for each molecule: values may come before it.

Key:
[1] = tested on: T. cruzi Tulahuen lacZ strain; assay: Anti-T. cruzi activity, intracellular amastigotes in HFF-1 cells, beta-galactosidase/CPRG readout; details: Trypanosoma cruzi, HFF-1, 120 h
[2] = tested on: Candida albicans (ATCC 64548); assay: Antifungal broth microdilution (CLSI M27A3), MIC; assay type: cell-based; details: for MIC: Candida albicans, ATCC64548, read-out: minimum inhibitory concentration (MIC)
Description: The antifungal activity of compounds 1–5, 7–11 was evaluated using the broth microdilution method in 96‐well plates, following the Clinical Laboratory Standard Institute (CLSI) guidelines M27A3 [35, 36], with minor modifications. The assay was performed against Candida auris (CDC B11903), Candida parapsilosis (ATCC 22019), and Candida albicans (ATCC 64548), and based on the determination of the minimum inhibitory concentration (MIC).
Each compound was initially dissolved in DMSO at a stock concentration 100 times higher than the highest concentration tested. Working solutions were subsequently prepared in RPMI 1640 culture medium (pH 7.0), supplemented with L‐glutamine, devoid of bicarbonate, and containing phenol red as a pH indicator, to yield a 2 × concentration. Serial two‐fold dilutions were made to obtain final concentrations ranging from 3.125 to 200.00 µg/mL. Fluconazole was used as a reference antifungal control.
Aliquots of 100 µL of each 2 × test solution were dispensed into the wells of the microdilution plates. Fungal suspensions were prepared in autoclaved distilled water and adjusted to a final concentration of 5.0 × 10^3 conidia or blastoconidia/mL. After inoculation, plates were incubated at 37°C. Fungal growth was visually assessed after 24 and 48 h. […] All assays were performed in duplicate.

Cytotoxicity assay, MTS = assay type: cell-based; details: human, HFF-1, 120-hour incubation, maximum tested 64 µM
Description: Cytotoxicity assays: HFF‐1 fibroblasts (provided by Rio de Janeiro Cell Bank (BCRJ)) were seeded at a density of 2 × 10^3 cells per well in 100 µL of DMEM and incubated overnight at 37°C in a 5% CO2 atmosphere. Subsequently, test compounds were added in serial dilutions, followed by a 120‐hour incubation period under the same conditions. Each plate included negative controls and doxorubicin as a positive control. After incubation, 15 µL of MTS reagent (CellTiter96) was added to each well, and plates were incubated for an additional 4 h. Absorbance was measured at 490 nm using a microplate reader. The percentage of growth inhibition was calculated relative to the absorbance of the negative control wells.

papain [3] = biological target: T1, papain (Carica papaya, UniProt P00784); assay: Papain inhibition, fluorometric Z-Phe-Arg-MCA assay; assay type: biochemical; details: for inhibition at 100 µM: read-out: % inhibition (100 µM)
T1 construct: purchased
T1 sequence (P00784 134-345): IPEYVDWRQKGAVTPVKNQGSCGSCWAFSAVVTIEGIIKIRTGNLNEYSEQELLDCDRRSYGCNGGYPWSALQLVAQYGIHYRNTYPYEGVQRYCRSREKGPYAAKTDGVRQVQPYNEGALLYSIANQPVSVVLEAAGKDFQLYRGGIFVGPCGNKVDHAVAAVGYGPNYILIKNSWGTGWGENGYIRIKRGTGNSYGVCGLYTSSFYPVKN
Description: Compounds 1, 2, 4, and 7–11 were tested against papain inhibitory activity. Papain served as the model cysteine protease in the protease inhibition assay. Enzyme activity was assessed via real‐time fluorometric monitoring of 7‐amino‐4‐methylcoumarin (MCA) release during substrate cleavage. Hydrolysis of the fluorogenic substrate Z‐Phe‐Arg‐MCA (ZFR‐MCA) was tracked in black 96‐well plates using a spectrofluorometer (λex/λem = 380/460 nm) (SpectraMax M3, Molecular Devices).
Each reaction well contained 5 µL papain (80 nM), 2 µL dithiothreitol (DTT, 500 mM), and 158 µL sodium acetate buffer (100 mM, pH 5.5, 5 mM EDTA). After a 5‐minute pre‐incubation at 27°C, 5 µL of test compound (dissolved in DMSO) or DMSO (negative control) was added. In the initial screening, all compounds were tested at a fixed concentration of 100 µM to evaluate their inhibitory potential. Following a second 5‐minute incubation at 27°C, 30 µL ZFR‐MCA (0.6 mM) was added, and fluorescence was recorded every 300 s using a SpectraMax M3 microplate reader (Molecular Devices). This concentration guided subsequent serial dilutions to determine the IC50 (half‐maximal inhibitory concentration).
For this, a serial dilution series was prepared from the active compounds, and the assay was conducted as previously described. Final assay conditions (200 µL/well) yielded effective compound concentrations of 100 µM to 1.56 µM for IC50 determination. Papain's molar concentration was validated via titration with the irreversible inhibitor E‐64 (positive control) from 1.0 µM to 31.25 nM. All experiments included triplicate measurements across two independent trials (total n = 6).

papain [4] = biological target: T1, papain; design: method as in earlier work; details: at 200 µM; cited from earlier work
bacteria = tested on: bacteria; design: method as in PMID 21497643; details: cited from earlier work
plant-parasitic nematode = tested on: plant-parasitic nematode; design: method as in PMID 27990770; details: cited from earlier work
Cryphonectria parasitica = tested on: Cryphonectria parasitica; design: method as in PMID 11052720; details: against Cryphonectria parasitica; cited from earlier work
papain [5] = biological target: T1, papain; design: method as in PMID 32189177; details: at a concentration of 50 µM, cited from earlier work

Molecule: O=C(Cn1ccnc1[N+](=O)[O-])NCc1ccccc1 [Benznidazole, reference compound]
IC50 [1]: 2.24 ± 0.9 µM

Molecule: CCCCc1ccc(C(=O)[O][Mg][O]C(=O)c2ccc(CCCC)cn2)nc1 [Compound 2, magnesium complex of fusaric acid]
IC50 [1]: 12.2 ± 0.4 µM | MIC [2]: 50 µg/mL | CC50 at 120 h (Cytotoxicity assay, MTS): > 64 µM | IC50 (papain [3]; papain): 17.5 µM | inhibition at 100 µM (papain [3]): 94 ± 7.9%

Molecule: CSC12CC3=CC=CC(OC(C)=O)C3N1C(=O)C1(SC)CC3=CC=CC(OC(C)=O)C3N1C2=O (centres unmarked) [Compound 4, haematocin]
IC50 [1]: 13.3 ± 1 µM | MIC [2]: 100 µg/mL (≈ 199 µM) | CC50 at 120 h (Cytotoxicity assay, MTS): > 64 µM | IC50 (papain [3]): 47.7 µM | inhibition at 100 µM (papain [3]): 76.6%

Molecule: CCCCc1ccc(C(=O)O)nc1 [Compound 5, fusaric acid]
IC50 [1]: 20.9 ± 0.3 µM | CC50 at 120 h (Cytotoxicity assay, MTS): > 64 µM | papain inhibition (papain [4]): 58%

Molecule: C[C@@H](O)CCc1ccc(C(=O)O)nc1 [Compound 7, (R)‐fusarinolic acid]
IC50 [1]: 60.07 ± 0.6 µM | antibacterial activity (bacteria): no significant activity | CC50 at 120 h (Cytotoxicity assay, MTS; HFF-1 fibroblasts): > 64 µM | plant-parasitic nematode activity (plant-parasitic nematode): no significant activity

Molecule: CC(C)=CCCC(C)(O)C1CCC(C)(O)C1C (centres unmarked) [Compound 8, cyclonerodiol]
IC50 [1]: 22.7 ± 1.1 µM | antifungal activity (Cryphonectria parasitica): weak antifungal activity | CC50 at 120 h (Cytotoxicity assay, MTS; HFF-1 fibroblasts): > 64 µM | inhibition at 100 µM (papain [3]; papain, compound at 100 µM): 89% | IC50 (papain [3]; papain, read-out: IC50): 25.9 µM

IC50 (papain [3]; papain, positive control, read-out: IC50): 0.0072 µM
Molecule: CC(C)C[C@H](NC(=O)[C@H]1O[C@@H]1C(=O)O)C(=O)NCCCCN=C(N)N [E‐64, reference compound]

Molecule: CC(C)C[C@@H]1NC(=O)[C@@H]2CCCN2C1=O [cyclo(L‐Leu‐L‐Pro) diketopiperazine]
papain inhibition (papain [5]; 50 µM): 3%

Molecule: CC(C)[C@@H]1NC(=O)[C@@H]2CCCN2C1=O [cyclo(L‐Val‐L‐Pro)]
papain inhibition (papain [5]): 10%

Molecule: Iron complex of fusaric acid [Compound 1]
minimum inhibitory concentration (MIC) ([2]; C. albicans, tested 3.125 to 200.00 µg/mL): 100 µg/mL | % inhibition (100 µM) (papain [3]; papain, compound at 100 µM, 100 µM): 88.6% | IC50 (papain [3]; papain, read-out: IC50): 14.1 µM
